Measurements as given in ChEMBL document CHEMBL2346598, “Synthesis and pharmacological characterization of 2-(acylamino)thiophene derivatives as metabolically stable, orally effective, positive allosteric modulators of the GABAB receptor” (J Med Chem, 2013).
pIC50: −log10 of the molar value. Activity calls are given as the source filed them. The calls are words filed in the database; no cut-off is given here.

What was measured:
Rattus norvegicus [1] = organism: Rattus norvegicus; assay: Positive allosteric modulation of GABAB receptor in rat cortical membranes assessed as stimulation of [35S]GTPgammaS binding up to 100 uM after 30 mins by liquid scintillation counting analysis; type: functional, cell membranes; conditions: Membrane
Rattus norvegicus [2] = organism: Rattus norvegicus; assay: Positive allosteric modulation of GABAB receptor in rat cortical membranes assessed as potentiation of GABA-induced [35S]GTPgammaS binding after 30 mins by liquid scintillation counting analysis; type: functional, cell membranes; conditions: Membrane
Rattus norvegicus [3] = organism: Rattus norvegicus; assay: Positive allosteric modulation of GABAB receptor in rat cortical membranes assessed as potentiation of GABA-induced [35S]GTPgammaS binding at 2.5 uM after 30 mins by liquid scintillation counting analysis relative to GABA; type: functional, cell membranes; conditions: Membrane
Rattus norvegicus [4] = organism: Rattus norvegicus; assay: Positive allosteric modulation of GABAB receptor in rat cortical membranes assessed as potentiation of GABA-induced [35S]GTPgammaS binding at 25 uM after 30 mins by liquid scintillation counting analysis relative to GABA; type: functional, cell membranes; conditions: Membrane
NIH3T3 = assay: Cytotoxicity against mouse NIH/3T3 cells after 24 hrs by neutral red staining-based UV/visible spectrophotometric analysis; type: cell-based; conditions: NIH3T3, 24 h
[5] = Ratio of compound IC50 to COR628 IC50 for mouse NIH/3T3 cells; type: ADME, cell-based, NIH3T3; conditions: read-out: Ratio IC50
[6] = Ratio of compound IC50 to COR627 IC50 for mouse NIH/3T3 cells; type: ADME, cell-based, NIH3T3; conditions: read-out: Ratio IC50

Q: For `CCc1c(C)sc(NC(=O)c2ccc(I)cc2)c1C(=O)OC`, which Activity (Rattus norvegicus [1]) is on record?
A: inactive

Q: And the Activity (Rattus norvegicus [2])?
A: inactive

Q: For `COC(=O)c1c(NC(=O)c2ccc(OC)c(OC)c2)sc2c1CCCC2`, which Activity (Rattus norvegicus [1]) is on record?
A: inactive

Q: And the Activity (Rattus norvegicus [3])?
A: -4.1%

Q: What about the Activity (Rattus norvegicus [4]) of the same compound?
A: 9%

Q: What about the Activity (Rattus norvegicus [2]) of the same compound?
A: inactive

Q: For `COc1ccc(C(=O)Nc2sc3c(c2C#N)CCCC3)cc1OC`, which Activity (Rattus norvegicus [1]) is on record?
A: inactive

Q: And the Activity (Rattus norvegicus [2])?
A: inactive

Q: With `CCc1c(C)sc(NC(=O)C23CC4CC(CC(C4)C2)C3)c1C(=O)OC` as the compound, how does the pIC50 (NIH3T3) read?
A: 4.49

Q: What about the Activity (Rattus norvegicus [3]) of the same compound?
A: 9.2%

Q: And the Activity (Rattus norvegicus [4])?
A: 22%

Q: For `CCc1c(C)sc(NC(=O)c2ccc(-c3ccc(C)cc3)cc2)c1C(=O)OC`, which Activity (Rattus norvegicus [1]) is on record?
A: inactive

Q: What about the Activity (Rattus norvegicus [2]) of the same compound?
A: inactive

Q: With `COC(=O)c1c(NC(=O)c2ccccc2)sc2c1CCCC2` as the compound, how does the Activity (Rattus norvegicus [1]) read?
A: inactive

Q: What about the Activity (Rattus norvegicus [2]) of the same compound?
A: inactive

Q: With `N#Cc1c(NC(=O)C2CCCCC2)sc2c1CCCC2` as the compound, how does the selectivity ratio [5] read?
A: 4

Q: And the Activity (Rattus norvegicus [1])?
A: inactive

Q: What about the selectivity ratio [6] of the same compound?
A: 4

Q: And the Activity (Rattus norvegicus [2])?
A: inactive

Q: With `CCc1c(C)sc(NC(=O)c2ccc(Cl)cc2)c1C(=O)OC(C)(C)C` as the compound, how does the Activity (Rattus norvegicus [1]) read?
A: inactive

Q: What about the Activity (Rattus norvegicus [2]) of the same compound?
A: inactive

Q: For `CCc1c(C)sc(NC(=O)c2cccc(Cl)c2)c1C(=O)OC`, which Activity (Rattus norvegicus [1]) is on record?
A: inactive

Q: What about the Activity (Rattus norvegicus [3]) of the same compound?
A: 4%

Q: And the Activity (Rattus norvegicus [4])?
A: 11%

Q: What about the Activity (Rattus norvegicus [2]) of the same compound?
A: inactive

Q: What does the source list for `CCc1c(C)sc(NC(=O)c2ccc(OC)cc2)c1C(=O)OC`?
A: Activity (Rattus norvegicus [1]): inactive; Activity (Rattus norvegicus [2]): inactive

Q: For `CCc1c(C)sc(NS(=O)(=O)C2CCCCC2)c1C(=O)OC`, which Activity (Rattus norvegicus [1]) is on record?
A: inactive

Q: What about the Activity (Rattus norvegicus [2]) of the same compound?
A: inactive

Q: With `COC(=O)c1c(NC(=O)C2CCCCC2)sc2c1CCCC2` as the compound, how does the pIC50 (NIH3T3) read?
A: 4.21

Q: And the Activity (Rattus norvegicus [1])?
A: inactive

Q: And the Activity (Rattus norvegicus [3])?
A: -5.6%

Q: What about the Activity (Rattus norvegicus [4]) of the same compound?
A: 12%

Q: What about the Activity (Rattus norvegicus [2]) of the same compound?
A: inactive

Q: With `CCc1c(C)sc(NC(=O)c2ccc(Br)cc2)c1C(=O)OC` as the compound, how does the Activity (Rattus norvegicus [1]) read?
A: inactive

Q: And the Activity (Rattus norvegicus [2])?
A: inactive

Q: What does the source list for `CCc1c(C)sc(NC(=O)c2ccccc2)c1C(=O)OC`?
A: pIC50 (NIH3T3): 4.18; Activity (Rattus norvegicus [1]): inactive; Activity (Rattus norvegicus [3]): 3.1%; Activity (Rattus norvegicus [4]): 12%; Activity (Rattus norvegicus [2]): inactive

Q: With `CCc1c(C)sc(NC(=O)C2CCCC2)c1C(=O)OC` as the compound, how does the pIC50 (NIH3T3) read?
A: 4.47

Q: What about the Activity (Rattus norvegicus [1]) of the same compound?
A: inactive

Q: And the Activity (Rattus norvegicus [3])?
A: 3%

Q: What about the Activity (Rattus norvegicus [4]) of the same compound?
A: 12.1%

Q: What about the Activity (Rattus norvegicus [2]) of the same compound?
A: inactive

Q: What does the source list for `CCc1c(C)sc(NS(=O)(=O)c2ccc(C)cc2)c1C(=O)OC`?
A: Activity (Rattus norvegicus [1]): inactive; Activity (Rattus norvegicus [2]): inactive

Q: For `CCc1c(C)sc(NC(=O)c2ccc(-c3ccccc3)cc2)c1C(=O)OC`, which Activity (Rattus norvegicus [1]) is on record?
A: inactive

Q: And the Activity (Rattus norvegicus [2])?
A: inactive

Q: For `CCCOC(=O)c1c(NC(=O)c2ccc(Cl)cc2)sc(C)c1CC`, which Activity (Rattus norvegicus [1]) is on record?
A: inactive

Q: What about the Activity (Rattus norvegicus [2]) of the same compound?
A: inactive

Q: What does the source list for `CCc1c(C)sc(NC(=O)Oc2ccccc2)c1C(=O)OC`?
A: Activity (Rattus norvegicus [1]): inactive; Activity (Rattus norvegicus [3]): 3.9%; Activity (Rattus norvegicus [4]): 8.2%; Activity (Rattus norvegicus [2]): inactive

Q: For `CCc1c(C)sc(N(C)C(=O)c2ccc(Cl)cc2)c1C(=O)OC`, which Activity (Rattus norvegicus [1]) is on record?
A: inactive

Q: What about the Activity (Rattus norvegicus [2]) of the same compound?
A: inactive

Q: Which results are given for `CCc1c(C)sc(NC(=O)c2ccc(-c3cccnc3)cc2)c1C(=O)OC`?
A: Activity (Rattus norvegicus [1]): inactive; Activity (Rattus norvegicus [2]): inactive

Q: Which Activity (Rattus norvegicus [1]) does the source give for `COC(=O)c1ccsc1NC(=O)c1ccccc1` here?
A: inactive

Q: What about the Activity (Rattus norvegicus [2]) of the same compound?
A: inactive

Q: For `CCc1c(C)sc(NC(=O)C(C)(C)C)c1C(=O)OC`, which Activity (Rattus norvegicus [1]) is on record?
A: inactive

Q: What about the Activity (Rattus norvegicus [2]) of the same compound?
A: inactive

Q: With `CCc1c(C)sc(NS(=O)(=O)c2ccccc2)c1C(=O)OC` as the compound, how does the pIC50 (NIH3T3) read?
A: 3.84

Q: What about the Activity (Rattus norvegicus [1]) of the same compound?
A: inactive

Q: And the Activity (Rattus norvegicus [3])?
A: 2.9%

Q: What about the Activity (Rattus norvegicus [4]) of the same compound?
A: 5.9%

Q: And the Activity (Rattus norvegicus [2])?
A: inactive

Q: What does the source list for `CCc1c(C)sc(NC(=O)c2ccc([N+](=O)[O-])cc2)c1C(=O)OC`?
A: Activity (Rattus norvegicus [1]): inactive; Activity (Rattus norvegicus [2]): inactive

Q: With `COC(=O)c1ccsc1NC(=O)c1ccc(Cl)cc1` as the compound, how does the Activity (Rattus norvegicus [1]) read?
A: inactive

Q: What about the Activity (Rattus norvegicus [2]) of the same compound?
A: inactive

Q: For `CCc1c(C)sc(NC(=O)C2CC2)c1C(=O)OC`, which Activity (Rattus norvegicus [1]) is on record?
A: inactive

Q: And the Activity (Rattus norvegicus [2])?
A: inactive

Q: Which Activity (Rattus norvegicus [1]) does the source give for `CCc1c(C)sc(NC(=O)c2ccc(C)cc2)c1C(=O)OC(C)(C)C` here?
A: inactive

Q: What about the Activity (Rattus norvegicus [2]) of the same compound?
A: inactive

Q: With `CCCOC(=O)c1c(NC(=O)c2ccc(C)cc2)sc(C)c1CC` as the compound, how does the Activity (Rattus norvegicus [1]) read?
A: inactive

Q: And the Activity (Rattus norvegicus [2])?
A: inactive

Q: For `CCc1c(C)sc(NC(=O)c2ccccc2Cl)c1C(=O)OC`, which Activity (Rattus norvegicus [1]) is on record?
A: inactive

Q: And the Activity (Rattus norvegicus [2])?
A: inactive

Q: With `Cc1ncc(-c2ccc(C(F)(F)F)cc2)c(N[C@@H]2C[C@H]3CC[C@@H]2C3)n1` as the compound, how does the pIC50 (NIH3T3) read?
A: 4.46

Q: Which results are given for `CCc1c(C)sc(NC(=O)Cc2ccccc2)c1C(=O)OC`?
A: Activity (Rattus norvegicus [1]): inactive; Activity (Rattus norvegicus [2]): inactive

Q: With `CCc1c(C)sc(NC(=O)C2CCCCC2)c1C(=O)OC` as the compound, how does the pIC50 (NIH3T3) read?
A: 4.48

Q: What about the Activity (Rattus norvegicus [3]) of the same compound?
A: 2%

Q: And the Activity (Rattus norvegicus [4])?
A: 15.1%

Q: For `CCc1c(C)sc(NC(C)=O)c1C(=O)OC`, which Activity (Rattus norvegicus [1]) is on record?
A: inactive

Q: What about the Activity (Rattus norvegicus [2]) of the same compound?
A: inactive
